From article PMC8399847, “Hybrid Quinolinyl Phosphonates as Heterocyclic Carboxylate Isosteres: Synthesis and Biological Evaluation against Topoisomerase 1B (TOP1B)” (Pharmaceuticals, 2021)

Key:
[1] = tested on: A549 (human lung adenocarcinoma cells); assay: CCK-8 cytotoxicity assay, A549; assay type: cell-based; settings: A549, 48 h, read-out: Cytotoxicity IC50 Lung A549
Procedure: (§1) The cytotoxicity of the newly synthesized quinolinylphosphonates 7 was evaluated in vitro by testing their antiproliferative activities against several human cancer cell lines: A549 (human lung adenocarcinoma cells), SKOV3 (human ovarian carcinoma), and HEK293 (human embryonic kidney). In order to analyze the selective cytotoxicity facing exclusively cancerous cell lines, cytotoxicity against non-cancerous cell lines (MRC-5, lung fibroblast cells) was also evaluated. Cell counting kit (CCK-8) assay was employed to assess growth inhibition and, cell proliferation inhibitory activities of compounds that are listed in Table 1 as IC50 values. […] According to the data presented in Table 1, in general, all these phosphorated derivatives present higher selective cytotoxicity in the A549 cell line than in the other two cell lines, SKOV3 and HEK293, although slight differences are observed compared to human ovarian carcinoma (SKOV3).
(§2) Cells were cultured according to the supplier’s instructions, A549 (ATCC® CCL-185), SKOV3 (ATCC® HTB-77), HEK293 (CLS GmbH), MRC-5 (ATCC® CCL-171™). Cells were seeded in 96-well plates at a density of 2–2.5 × 10^3 cells per well and incubated overnight in 0.1 mL of media supplied with 10% Fetal Bovine Serum (Lonza, Basel, Switzerland) in a 5% CO2 incubator at 37 °C. On day 2, drugs (concentration between 0.5–50 μM) were added and samples were incubated for 48 h. After treatment, 10 μL of cell counting kit-8 was added to each well for an additional 2 h incubation at 37 °C. The absorbance of each well was determined by an Automatic Elisa Reader System at 450 nm wavelength. CPT was purchased from Sigma-Aldrich and used as a positive control.

[2] = tested on: SKOV3 (human ovarian carcinoma); assay: CCK-8 cytotoxicity assay, SKOV3; assay type: cell-based; settings: SK-OV-3, 48 h, read-out: Cytotoxicity IC50 Ovarian SKOV3
Procedure: as §1, §2

[3] = tested on: HEK293 (human embryonic kidney); assay: CCK-8 cytotoxicity assay, HEK293; assay type: cell-based; settings: HEK293, 48 h, CCK-8, 50% growth inhibition
Procedure: as §1, §2

[4] = CCK-8 cytotoxicity assay, MRC-5 non-cancerous cells; assay type: cell-based; settings: human, MRC-5 non-malignant lung fibroblasts
Procedure: as §1, §2

[5] = tested on: L. infantum promastigotes; assay: In vitro iRFP-L. infantum promastigotes viability assay; assay type: cell-based; settings: Leishmania infantum; 96 h exposure, EC50 ± SD
Procedure: (§3) The effect of the new quinolinylphosphonate derivatives 7 synthesized was assessed on both free-living promastigotes and intramacrophage amastigotes of L. infantum as it is described in experimental protocols. Primary cultures of intramacrophage amastigotes were obtained from splenic explants from 6-weeks infected Balb/c mice with L. infantum-iRFP promastigotes. The infrared fluorescence emitted by both stage forms of the parasite was used as viability criterium, using 0.5% DMSO as negative control (100% viability) and […] AMB as a positive control (0% viability).
A genetically modified strain of L infantum BCN 150, expressing iRFP protein from Rhodopseudomonas palustris bacteriophytochrome (iRFP-L. infantum), was used to obtain the EC50 values of the different compounds against promastigotes, through the detection of the near-infrared radiation emitted by living parasites exposed to tested molecules. Thus, the viability of promastigotes was calculated after recording their fluorescence at 708 nm in an Odyssey (Li-Cor, NE, USA) infrared imaging.
iRFP-L. infantum promastigotes were cultured using M199 medium (Gibco, Thermo Fisher Scientific, MA, USA), supplemented with 25 mM 4-(2-hydroxyethyl)-1-piperazineethanesulfonic acid (HEPES) pH 6.9, […] hemin, 10 mM glutamine, 0.1 mM adenosine, 0.01 mM folic acid, 1× RPMI 1640 vitamin mix (Sigma, Darmstadt, Germany), 10% (v/v) heat-inactivated foetal bovine serum (Gibco, Thermo Fisher Scientific, MA, USA), 50 U/mL penicillin and 50 µg/mL streptomycin. The assay was carried out, seeding 1 × 10^6 cells/mL of iRFP-L. infantum promastigotes into 96-well optical bottom black plates (Thermo Scientific, MA, USA) along with different concentrations of compound to each well. The final concentration of DMSO, the solvent used to prepare the stock solutions of compounds, was never higher than 0.1%. All of the compounds’ concentrations and controls were assayed by triplicate.

L. infantum amastigotes = assay: Ex vivo murine splenic explant culture, intramacrophage amastigotes; assay type: cell-based; settings: Leishmania infantum, Hec50; intramacrophage amastigotes in splenic explants, 96 h, EC50 ± SD
Procedure: as §3
The EC50 values of compounds against the amastigote forms were calculated using a cell suspension obtained from spleens extracted from BALB/c mice. Mice had been infected previously with iRFP L. infantum metacyclic promastigotes and sacrificed five weeks after infection. To obtain the cell suspension containing amastigotes, spleens washed with cold phosphate-buffered saline (PBS), were cut into pieces, and incubated with 5 mL of 2 mg/mL collagenase D (Sigma, Darmstadt, Germany), which was prepared in buffer (10 mM HEPES, pH 7.4, 150 mM NaCl, 5 mM KCl, 1 mM MgCl2 and 1.8 mM CaCl2) for 20 min. Subsequently, these cells were passed through a 100 µm cell strainer, collected by centrifugation (500× g for 7 min at 4 °C), washed twice with PBS, and suspended in RPMI medium (Gibco, Thermo Fisher Scientific, MA, USA) supplemented with 10 mM HEPES, 1 mM sodium pyruvate, 1xRPMI 1640 vitamin mix, 10% (v/v) FBS, 50 U/mL penicillin and 50 µg/mL streptomycin, at 37 °C under a 5% CO2 atmosphere.
To assay the effect of the different compounds against amastigotes, which infect splenic cells, these cells were seeded to confluence into 384-well black optical bottom plates (Thermo Scientific, Waltham, MA, USA) in addition to different concentrations of compound to each well. The viability of amastigotes was calculated by recording their fluorescence at 708 nm in an Odyssey (Li-Cor, NE, USA) infrared imaging system, after 96 h of exposure. Plots of the infrared fluorescence against the concentrations of tested compounds were fitted by nonlinear analysis using the Sigma Plot 10.1 statistical package and used to calculate EC50 values. As well as promastigotes viability, the assays were performed in triplicate.

murine splenocytes = assay: Splenocyte viability, Alamar Blue; assay type: cell-based, BALB/c mice; settings: for IC50: Mus musculus, Splenocyte, read-out: IC50 Splenocites; for SI (selectivity index): ratio IC50 splenic cells / EC50 amastigotes
Procedure: The viability of splenocytes cells against the different compounds was measured using the Alamar Blue staining method (Invitrogen, MA, USA). For this purpose, these cells were obtained following the protocol indicated in the previous section, from uninfected mice. Plots of absorbance of viable cells (obtained following manufacturer’s recommendations of Alamar Blue) vs compounds concentration were used to calculate CC50 values. Plots were fitted by nonlinear analysis using the Sigma Plot 10.1 statistical package. The assays were performed by triplicate.
The selectivity index for each compound was calculated as the ratio between the IC50 value for splenic cells and the EC50 value for amastigotes.

Row | Structure (SMILES) | IC50 [1] [µM] | IC50 [2] [µM] | IC50 [3] [µM] | IC50 at 48 h [4] [µM] | EC50 [5] [µM] | EC50 (L. infantum amastigotes) [µM] | IC50 (murine splenocytes) [µM] | SI (selectivity index) (murine splenocytes) | melting point [°C]
1 | CCOP(=O)(OCC)c1cccc2c(-c3ccccc3)cc(-c3ccc(OC)cc3)nc12 [7c, Diethyl (2-(4-methoxyphenyl)-4-phenylquinolin-8-yl)phosphonate] | 12.6 ± 1.3 | 25 ± 3.6 | 38.3 ± 8.9 | > 50 | 9.46 ± 1.67 | 8.23 ± 1.7 | 15.9 ± 1.65 | 1.9 | 120 to 122
2 | CCOP(=O)(OCC)c1cccc2c(-c3ccccc3)cc(-c3ccc4ccccc4c3)nc12 [7e, Diethyl (2-(naphthalen-2-yl)-4-phenylquinolin-8-yl)phosphonate] | 3.18 ± 0.27 | 1.33 ± 0.76 | 48.1 ± 6.39 | > 50 | 20.4 ± 1.57 | 20.4 ± 5.62 | 51.6 ± 1.52 | 2.5 | 135 to 137
3 | CCOP(=O)(OCC)c1cccc2c(-c3ccccc3)cc(-c3ccccc3OC)nc12 [7d, Diethyl (2-(2-methoxyphenyl)-4-phenylquinolin-8-yl)phosphonate] | 12.3 ± 4.1 | 19.4 ± 1.6 | > 50 | > 50 | 11.4 ± 0.62 | 19.5 ± 2.38 | 30.1 ± 6.05 | 1.5 | 121 to 123
4 | CCOP(=O)(OCC)c1ccc2nc(-c3ccc(F)c(F)c3)cc(-c3ccc(C)cc3)c2c1 [7x, Diethyl (2-(3,4-difluorophenyl)-4-(p-tolyl)quinolin-6-yl)phosphonate] | 3.05 ± 0.86 | > 50 | > 50 | > 50 | 21.3 ± 2.34 | 33 ± 6.55 | 32.3 ± 3.36 | 1 | 158 to 160
5 | CCOP(=O)(OCC)c1cccc2c(-c3ccccc3)cc(-c3ccccc3)nc12 [7a, Diethyl (2,4-diphenylquinolin-8-yl)phosphonate] | 2.26 ± 0.59 | 9.3 ± 0.76 | 27.3 ± 2.22 | > 50 | 0.91 ± 0.04 | 4.03 ± 0.3 | 3.61 ± 0.45 | 0.9 | 118 to 120
6 | CCOP(=O)(OCC)c1ccc2nc(-c3ccc(F)cc3)cc(-c3ccc(C)cc3)c2c1 [7v, Diethyl (2-(4-fluorophenyl)-4-(p-tolyl)quinolin-6-yl)phosphonate] | 0.84 ± 0.23 | 41.6 ± 10 | > 50 | > 50 | 7.02 ± 0.94 | 17.6 ± 7.81 | 11.2 ± 4.42 | 0.6 | 153 to 155
7 | CCOP(=O)(OCC)c1cccc2c(-c3ccccc3)cc(-c3cccc4ccccc34)nc12 [7f, Diethyl (2-(naphthalen-1-yl)-4-phenylquinolin-8-yl)phosphonate] | 2.66 ± 0.16 | 4.54 ± 0.52 | 35.7 ± 3.13 | > 50 | 20.6 ± 2.19 | 19.7 ± 2.39 | 12.2 ± 1.49 | 0.6 | 140 to 142
8 | Cc1ccc(-c2cc(-c3ccc(F)c(F)c3)nc3c(P(=O)(OC(C)C)OC(C)C)cccc23)cc1 [7q, Diisopropyl (2-(3,4-difluorophenyl)-4-(p-tolyl)quinolin-8-yl)phosphonate] | 8.24 ± 2.42 | 4.67 ± 1.5 | 12.3 ± 0.71 | > 50 | 7.46 ± 0.76 | 13.9 ± 3.65 | 28.3 ± 9.16 | 2 | 140 to 142
9 | CCOP(=O)(OCC)c1cccc2c(-c3ccc(C)cc3)cc(-c3ccc(F)cc3)nc12 [7j, Diethyl (2-(4-fluorophenyl)-4-(p-tolyl)quinolin-8-yl)phosphonate] | 0.83 ± 0.01 | 10.2 ± 0.38 | > 50 | > 50 | 7.29 ± 0.94 | 9.8 ± 0.48 | 14.5 ± 1.56 | 1.5 | 139 to 141
10 | CCOP(=O)(OCC)c1cccc2c(-c3ccc(F)cc3)cc(-c3ccc(F)c(F)c3)nc12 [7i, Diethyl (2-(3,4-difluorophenyl)-4-(4-fluorophenyl)quinolin-8-yl)phosphonate] | 4.64 ± 0.3 | 37.6 ± 9.1 | > 50 | > 50 | 6.35 ± 0.16 | 13.4 ± 5.53 | 20.6 ± 3.11 | 1.5 | 159 to 161
